Results taken from patent US9446027B2, “Use of pidotimod to treat irritable bowel syndrome” (POLICHEM SA, priority 2013, dated 2016).
Square brackets hold non-standard residues; d marks the D form. Peptide text beside a SMILES is read from it. pGlu = O=C1CC[C@@H](C(=O)O)N1; Thz = O=C(O)[C@@H]1CSCN1

System: irritable bowel syndrome
Assay: Open label pilot trial in patients with IBS: overall and extracolonic IBS scores
Assay type: in vivo, human
Conditions: nine IBS patients, oral solution of Example 4 twice a day, after 12 weeks
Source text: Nine patients with IBS aged 25 to 60 years (5 female) were enrolled in an open label pilot trial to receive twice a day the composition as per the Example 4. IBS was diagnosed according to Rome II criteria for the diagnosis of IBS (Rasquin-Weber A: Childhood functional gastrointestinal disorders, Gut 1999;45 (Suppl II): II60-II68). Rome II Criteria for the Diagnosis of IBS: at least 12 weeks, which need not be consecutive, in the preceding 12 months of abdominal discomfort or pain that has at least two of the following three features: • 1. Relieved by defecation. • 2. Onset associated with changes in stool frequency. • 3. Onset associated with changes in stool form.
The overall IBS scores (IBS Symptoms, Pain severity, Pain frequency, Bloating, Bowel habit dissatisfaction, Life interference) and extracolonic IBS scores were assessed at 4, 8, and 12 weeks during treatment.

SMILES: O=C1CC[C@@H](C(=O)N2CSC[C@H]2C(=O)O)N1 [Pidotimod, (4R)-3-(5-oxo-L-prolyl)-1,3-thiazolidine-4-carboxylic acid] ([pGlu]-[Thz]-OH)
- post-treatment overall extracolonic IBS score (baseline 240, P<0.001): 90
- overall IBS score (IBS Symptoms, Pain severity, Pain frequency, Bloating, Bowel habit dissatisfaction, Life interference) (baseline 315, P<0.05): 175
